Reference: PubChem BioAssay AID190 (DTP/NCI, 2004)
Values joined by “and” are separate entries in the source; they are usually repeats but may differ in a detail not shown here. Identical values can stand only once. Inconclusive results and toxic doses are left out. The calls were made as follows: active = survival T/C of 150% or more; inactive = T/C below 125% in these data.

Tested on: AKR/Lw mice, AKR lymphoma ip, median survival T/C
Assay: NCI In Vivo Anticancer Drug Screen. Data for tumor model Lymphoma AKR (Transplanted) (intraperitoneal) in AKR/Lw mice
Conditions: endpoint: median survival time, higher = longer survival
Experimental: The antitumor activity of compounds was measured in mice bearing transplantable tumors. Survival or tumor size were measured and the results are expressed as the measurement made in the treated group (T) divided by the measurement made in the vehicle treated control group (C). The tumor model used in this assay is Lymphoma AKR (Transplanted) (intraperitoneal) in AKR/Lw mice

[1] = dose: 100.0 mg/kg/injection, schedule: Q01DX001 (ip), vehicle: Klucel (hydroxypropylcellulose) (HPC)
[2] = dose: 100.0 mg/kg/injection, schedule: Q04DX003 (ip), vehicle: Klucel (hydroxypropylcellulose) (HPC)
[3] = dose: 200.0 mg/kg/injection, schedule: Q01DX001 (ip), vehicle: Klucel (hydroxypropylcellulose) (HPC)
[4] = dose: 400.0 mg/kg/injection, schedule: Q01DX001 (ip), vehicle: Klucel (hydroxypropylcellulose) (HPC)

Measured: T/C

CCN(CC)C(N)=S
inactive: [1] 105 % of control | [2] 100 % of control | [3] 105 % of control | dose: 200.0 mg/kg/injection, schedule: Q04DX003 (ip), vehicle: Klucel (hydroxypropylcellulose) (HPC) 103 % of control | [4] 110 % of control | dose: 400.0 mg/kg/injection, schedule: Q04DX003 (ip), vehicle: Klucel (hydroxypropylcellulose) (HPC) 107 % of control

C#CCn1cnc2c(Cl)ncnc21
inactive: [1] 97 % of control | [3] 104 % of control | [4] 107 % of control

Cc1c2ccncc2c(C)c2c1[nH]c1ccccc12
inactive: dose: 1.2 mg/kg/injection, schedule: Q01DX009 (ip), vehicle: Klucel (hydroxypropylcellulose) (HPC) 87 % of control | dose: 1.5 mg/kg/injection, schedule: Q01DX009 (ip), vehicle: saline 90 % of control and 118 % of control | dose: 3.0 mg/kg/injection, schedule: Q01DX009 (ip), vehicle: saline 104 % of control and 121 % of control | dose: 5.0 mg/kg/injection, schedule: Q01DX009 (ip), vehicle: saline 111 % of control | dose: 6.0 mg/kg/injection, schedule: Q01DX009 (ip), vehicle: saline 116 % of control | dose: 7.5 mg/kg/injection, schedule: Q04DX003 (ip), vehicle: Klucel (hydroxypropylcellulose) (HPC) 88 % of control | dose: 7.5 mg/kg/injection, schedule: Q04DX003 (ip), vehicle: saline 96 % of control | dose: 12.5 mg/kg/injection, schedule: Q01DX001 (ip), vehicle: Klucel (hydroxypropylcellulose) (HPC) 97 % of control | dose: 12.5 mg/kg/injection, schedule: Q01DX001 (ip), vehicle: saline 124 % of control | dose: 15.0 mg/kg/injection, schedule: Q01DX009 (ip), vehicle: Klucel (hydroxypropylcellulose) (HPC) 103 % of control | dose: 15.0 mg/kg/injection, schedule: Q04DX003 (ip), vehicle: Klucel (hydroxypropylcellulose) (HPC) 119 % of control | dose: 15.0 mg/kg/injection, schedule: Q04DX003 (ip), vehicle: saline 112 % of control | dose: 18.75 mg/kg/injection, schedule: Q04DX003 (ip), vehicle: saline 111 % of control and 116 % of control and 117 % of control | dose: 18.8 mg/kg/injection, schedule: Q04DX003 (ip), vehicle: Klucel (hydroxypropylcellulose) (HPC) 105 % of control | dose: 20.0 mg/kg/injection, schedule: Q01DX009 (ip), vehicle: Klucel (hydroxypropylcellulose) (HPC) 86 % of control | dose: 20.0 mg/kg/injection, schedule: Q01DX009 (ip), vehicle: saline 111 % of control | dose: 20.0 mg/kg/injection, schedule: Q04DX003 (ip), vehicle: Klucel (hydroxypropylcellulose) (HPC) 119 % of control | dose: 25.0 mg/kg/injection, schedule: Q01DX001 (ip), vehicle: Klucel (hydroxypropylcellulose) (HPC) 123 % of control | dose: 25.0 mg/kg/injection, schedule: Q01DX001 (ip), vehicle: saline 120 % of control | dose: 30.0 mg/kg/injection, schedule: Q04DX003 (ip), vehicle: Klucel (hydroxypropylcellulose) (HPC) 104 % of control and 111 % of control | dose: 35.0 mg/kg/injection, schedule: Q04DX003 (ip), vehicle: Klucel (hydroxypropylcellulose) (HPC) 116 % of control | dose: 50.0 mg/kg/injection, schedule: Q01DX001 (ip), vehicle: Klucel (hydroxypropylcellulose) (HPC) 118 % of control | dose: 75.0 mg/kg/injection, schedule: Q01DX001 (ip), vehicle: Klucel (hydroxypropylcellulose) (HPC) 123 % of control | [1] 111 % of control and 121 % of control | [2] 107 % of control | dose: 100.0 mg/kg/injection, schedule: Q04DX003 (ip), vehicle: saline 100 % of control | dose: 150.0 mg/kg/injection, schedule: Q01DX001 (ip), vehicle: Klucel (hydroxypropylcellulose) (HPC) 102 % of control | dose: 150.0 mg/kg/injection, schedule: Q01DX001 (ip), vehicle: saline 115 % of control
active: dose: 1.25 mg/kg/injection, schedule: Q01DX009 (ip), vehicle: saline 165 % of control | dose: 10.0 mg/kg/injection, schedule: Q01DX009 (ip), vehicle: saline 152 % of control | dose: 25.0 mg/kg/injection, schedule: Q01DX005 (ip), vehicle: water 263 % of control | dose: 25.0 mg/kg/injection, schedule: Q04DX003 (ip), vehicle: Klucel (hydroxypropylcellulose) (HPC) 153 % of control | dose: 50.0 mg/kg/injection, schedule: Q01DX005 (ip), vehicle: water 197 % of control | dose: 50.0 mg/kg/injection, schedule: Q04DX003 (ip), vehicle: Klucel (hydroxypropylcellulose) (HPC) 153 % of control | dose: 50.0 mg/kg/injection, schedule: Q04DX003 (ip), vehicle: water 226 % of control | dose: 100.0 mg/kg/injection, schedule: Q04DX003 (ip), vehicle: water 315 % of control
